Molecular target: T1, PIP4K2C (Homo sapiens, UniProt Q8TBX8)
T1 sequence (Q8TBX8 1-421): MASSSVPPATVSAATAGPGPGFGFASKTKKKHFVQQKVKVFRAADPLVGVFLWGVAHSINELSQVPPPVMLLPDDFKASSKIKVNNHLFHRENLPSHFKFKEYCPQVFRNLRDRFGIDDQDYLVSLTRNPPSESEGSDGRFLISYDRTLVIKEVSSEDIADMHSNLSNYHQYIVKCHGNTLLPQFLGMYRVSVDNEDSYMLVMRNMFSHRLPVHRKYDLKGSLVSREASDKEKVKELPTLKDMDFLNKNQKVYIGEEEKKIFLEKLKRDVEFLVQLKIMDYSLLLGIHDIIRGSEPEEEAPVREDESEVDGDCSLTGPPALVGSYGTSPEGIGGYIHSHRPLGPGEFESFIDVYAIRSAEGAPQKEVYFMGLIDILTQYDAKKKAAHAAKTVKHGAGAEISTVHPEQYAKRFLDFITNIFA
Test: HiBiT PIP4K2C degradation assay in MOLT-4 cells (endogenous PIP4K2C C-terminally tagged with HiBiT)
Type: cell-based
Parameters: untagged in primary human PBMCs and monocyte-derived dendritic cells
Conditions: 6 hours of incubation time, rather than 24 hours; MOLT-4, top concentration 10 micromolar; read-out: HiBIT-degradation MOLT4 PIP4k2C DC50 (6 hours, marked *)
Outline: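 DC50 derived by Hill fit of luminescence from Nano-Glo HiBiT lytic detection. Cells were HiBiT knock-in MOLT-4 (C-terminal tag on endogenous PIP4K2C), exposed 6 h or 24 h at 37 C to compound, top concentration 10 micromolar, 3-fold steps, 10 points, duplicates.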

Compound | DC50 [nM]
O=C1CCC(Nc2ccc(C3CCN(CC4CCN(C(=O)[C@H]5CC[C@H](Nc6ncc(F)c(-c7cccc(N8CCCCC8=O)c7)n6)CC5)CC4)CC3)c(F)c2)C(=O)N1 (stereo partly drawn) [Compound 394, trans-3-((3-fluoro-4-(1-((1-(4-((5-fluoro-4-(3-(2-oxopiperidin-1-yl)phenyl)pyrimidin-2-yl)amino)cyclohexane-1-carbonyl)piperidin-4-yl)methyl)piperidin-4-yl)phenyl)amino)piperidine-2,6-dione] | < 500
O=C1CCC(Nc2ccc(C3CCN(CC4CCN(C(=O)[C@H]5CC[C@H](Nc6ncc(F)c(-c7cccc(C(=O)N8CC[C@H](O)C8)c7)n6)CC5)CC4)CC3)c(F)c2)C(=O)N1 (stereo partly drawn) [Compound 468, trans-3-((3-fluoro-4-(1-((1-(4-((5-fluoro-4-(3-((S)-3-hydroxypyrrolidine-1-carbonyl)phenyl)pyrimidin-2-yl)amino)cyclohexane-1-carbonyl)piperidin-4-yl)methyl)piperidin-4-yl)phenyl)amino)piperidine-2,6-dione] | < 500
O=C1CC[C@@H](Nc2ccc(C3CCN(CC4(O)CCN(C(=O)[C@H]5CC[C@H](Nc6ncc(F)c(-c7cccc(-n8ccccc8=O)c7)n6)CC5)CC4)CC3)c(F)c2)C(=O)N1 (single isomer, unassigned) [Compound 442] | < 500
O=C1CC[C@@H](Nc2ccc(N3CCN([C@H]4CC[C@H](NC(=O)[C@H]5CC[C@H](Nc6ncc(F)c(-c7cccc(-c8ccc[nH]c8=O)c7)n6)CC5)CC4)CC3)c(F)c2)C(=O)N1 (single isomer, unassigned) [Compound 432] | < 500
O=C1CCC(Nc2ccc(C3CCN(CC4(O)CCN(C(=O)[C@H]5CC[C@H](Nc6ncc(F)c(-c7cccc(-n8ccccc8=O)c7)n6)CC5)CC4)CC3)c(F)c2)C(=O)N1 (stereo partly drawn) [Compound 409, trans-3-((3-fluoro-4-(1-((1-(-4-((5-fluoro-4-(3-(2-oxopyridin-1(2H)-yl)phenyl)pyrimidin-2-yl)amino)cyclohexane-1-carbonyl)-4-hydroxypiperidin-4-yl)methyl)piperidin-4-yl)phenyl)amino)piperidine-2,6-dione] | < 500
O=C1CCC(Nc2ccc(C3CCN([C@H]4CC[C@H](C(=O)N[C@H]5CC[C@H](Nc6ncc(F)c(-c7cccc(N8CCCCC8=O)c7)n6)CC5)CC4)CC3)c(F)c2)C(=O)N1 (stereo partly drawn) [Compound 447, trans-(1r,4R)-4-(4-(4-((2,6-dioxopiperidin-3-yl)amino)-2-fluorophenyl)piperidin-1-yl)-N-((1r,4R)-4-((5-fluoro-4-(3-(2-oxopiperidin-1-yl)phenyl)pyrimidin-2-yl)amino)cyclohexyl)cyclohexane-1-carboxamide] | < 500
O=C1CCC(Nc2ccc(C3CCN(C[C@H]4CC[C@H](CNC(=O)[C@H]5CC[C@H](Nc6ncc(F)c(-c7cccc(N8CCOCC8=O)c7)n6)CC5)CC4)CC3)c(F)c2)C(=O)N1 (stereo partly drawn) [Compound 589, trans-(1r,4R)—N-(((1r,4R)-4-((4-(4-((2,6-dioxopiperidin-3-yl)amino)-2-fluorophenyl)piperidin-1-yl)methyl)cyclohexyl)methyl)-4-((5-fluoro-4-(3-(3-oxomorpholino)phenyl)pyrimidin-2-yl)amino)cyclohexane-1-carboxamide] | < 500
O=C1CCC(Nc2ccc(C3CCN(C4CCN(C(=O)O[C@H]5CC[C@H](Nc6ncc(F)c(-c7cccc(N8CCCCC8=O)c7)n6)CC5)CC4)CC3)c(F)c2)C(=O)N1 (stereo partly drawn) [Compound 678, trans-4-((5-fluoro-4-(3-(2-oxopiperidin-1-yl)phenyl)pyrimidin-2-yl)amino)cyclohexyl 4-(4-((2,6-dioxopiperidin-3-yl)amino)-2-fluorophenyl)-[1,4′-bipiperidine]-1′-carboxylate] | < 500
O=C1CCC(Nc2ccc(C3CCN(CC4CCN(C(=O)[C@H]5CC[C@H](Nc6ncc(F)c(-c7cccc(N8CCOCC8=O)c7)n6)CC5)CC4)CC3)c(F)c2)C(=O)N1 (stereo partly drawn) [Compound 552, trans-3-((3-fluoro-4-(1-((1-(4-((5-fluoro-4-(3-(3-oxomorpholino)phenyl)pyrimidin-2-yl)amino)cyclohexane-1-carbonyl)piperidin-4-yl)methyl)piperidin-4-yl)phenyl)amino)piperidine-2,6-dione] | < 500
O=C1CCC(Nc2ccc(N3CCN([C@H]4CC[C@H](C(=O)N[C@H]5CC[C@H](Nc6ncc(F)c(-c7cccc(-c8ccc[nH]c8=O)c7)n6)CC5)CC4)CC3)c(F)c2)C(=O)N1 (stereo partly drawn) [Compound 450, trans-4-(4-(4-((2,6-dioxopiperidin-3-yl)amino)-2-fluorophenyl)piperazin-1-yl)-N-(trans-4-((5-fluoro-4-(3-(2-oxo-1,2-dihydropyridin-3-yl)phenyl)pyrimidin-2-yl)amino)cyclohexyl)cyclohexane-1-carboxamide] | < 500
O=C1CCC(Nc2ccc(N3CCN(CC4(O)CCN(C(=O)[C@H]5CC[C@H](Nc6ncc(F)c(-c7cccc(C(=O)N8CC[C@H](O)C8)c7)n6)CC5)CC4)CC3)c(F)c2)C(=O)N1 (stereo partly drawn) [Compound 482, trans-3-((3-fluoro-4-(4-((1-(4-((5-fluoro-4-(3-((S)-3-hydroxypyrrolidine-1-carbonyl)phenyl)pyrimidin-2-yl)amino)cyclohexane-1-carbonyl)-4-hydroxypiperidin-4-yl)methyl)piperazin-1-yl)phenyl)amino)piperidine-2,6-dione] | < 500
O=C1CCC(Nc2ccc(N3CCN(CC4(O)CCN(C(=O)[C@H]5CC[C@H](Nc6ncc(F)c(-c7cccc(-n8ccccc8=O)c7)n6)CC5)CC4)CC3)c(F)c2)C(=O)N1 (stereo partly drawn) [Compound 392, trans-3-((3-fluoro-4-(4-((1-(4-((5-fluoro-4-(3-(2-oxopyridin-1(2H)-yl)phenyl)pyrimidin-2-yl)amino)cyclohexane-1-carbonyl)-4-hydroxypiperidin-4-yl)methyl)piperazin-1-yl)phenyl)amino)piperidine-2,6-dione] | < 500
O=C1CCC(Nc2ccc(N3CCN([C@H]4CC[C@H](NC(=O)[C@H]5CC[C@H](Nc6ncc(F)c(-c7cccc(N8CCOCC8=O)c7)n6)CC5)CC4)CC3)c(F)c2)C(=O)N1 (stereo partly drawn) [Compound 508, trans-N-(trans-4-(4-(4-((2,6-dioxopiperidin-3-yl)amino)-2-fluorophenyl)piperazin-1-yl)cyclohexyl)-4-((5-fluoro-4-(3-(3-oxomorpholino)phenyl)pyrimidin-2-yl)amino)cyclohexane-1-carboxamide] | < 500

Same assay, conditions: 24 hours incubation, MOLT-4, top concentration 10 micromolar; read-out: HiBIT-degradation MOLT4 PIP4k2C 24 hours DC50

Compound | DC50 [nM]
Cn1c(=O)n(C2CCC(=O)NC2=O)c2ccc(C3CCN(C(=O)CC4CCN(C(=O)[C@H]5CCC[C@@H](Nc6ncc(Cl)c(-c7cccc(-c8ccccc8)c7)n6)C5)CC4)CC3)cc21 (relative stereo) [Compound 59, cis-3-(5-(1-(2-(1-(3-((4-([1,1′-biphenyl]-3-yl)-5-chloropyrimidin-2-yl)amino)cyclohexane-1-carbonyl)piperidin-4-yl)acetyl)piperidin-4-yl)-3-methyl-2-oxo-2,3-dihydro-1H-benzo[d]imidazol-1-yl)piperidine-2,6-dione] | < 500

Same assay, conditions: read-out: HiBIT-degradation MOLT4 PIP4k2C DC50 (6 hours, marked *); 6 hours of incubation time, rather than 24 hours; MOLT-4, top concentration 10 micromolar

Compound | DC50 [nM]
O=C1CCC(Nc2ccc(N3CCN(C[C@H]4CC[C@H](C(=O)N5CCC(Nc6ncc(F)c(-c7cccc(N8CCOCC8)c7)n6)CC5)CC4)CC3)c(F)c2)C(=O)N1 (stereo partly drawn) [Compound 670, 3-((3-fluoro-4-(4-((trans-4-(4-((5-fluoro-4-(3-morpholinophenyl)pyrimidin-2-yl)amino)piperidine-1-carbonyl)cyclohexyl)methyl)piperazin-1-yl)phenyl)amino) piperidine-2,6-dione] | > 5000
